Reference: patent publication US9096560B2, “5-heterocyclylalkyl-3-hydroxy-2-phenylcyclopent-2-enones as herbicides” (Syngenta Limited, priority 2008, dated 2015)

Legend:
Assay type in all cases: in vivo
Lolium perenne (LOLPE) [1] = assay: Example B pre-emergence herbicidal test, LOLPE; conditions: Lolium perenne, 312 h, rate 250 g/ha, evaluated after 13 days, 100=total damage to plant, 0=no damage to plant
Procedure: (§1) Seeds of a variety of test species were sown in standard soil in pots. After cultivation for one day (pre-emergence) or after 8 days cultivation (post-emergence) under controlled conditions in a glasshouse (at 24/16° C., day/night; 14 hours light; 65% humidity), the plants were sprayed with an aqueous spray solution derived from the formulation of the technical active ingredient in acetone/water (50:50) solution containing 0.5% Tween 20 (polyoxyethelyene sorbitan monolaurate, CAS RN 9005-64-5). The test plants were then grown in a glasshouse under controlled conditions in a glasshouse (at 24/16° C., day/night; 14 hours light; 65% humidity) and watered twice daily. After 13 days for pre and post-emergence, the test was evaluated (100=total damage to plant; 0=no damage to plant). Lolium perenne (LOLPE), Alopecurus myosuroides (ALOMY), Echinochloa crus-galli (ECHCG), Avena fatua (AVEFA) Pre-Emergence Activity

[2] = test system: Alopecurus myosuroides (ALOMY); assay: Example B pre-emergence herbicidal test, ALOMY; conditions: Alopecurus myosuroides, 312 h, rate 250 g/ha, evaluated after 13 days, 100=total damage to plant, 0=no damage to plant
Procedure: as §1

[3] = test system: Echinochloa crus-galli (ECHCG); assay: Example B pre-emergence herbicidal test, ECHCG; conditions: Echinochloa crus-galli, 312 h, rate 250 g/ha, evaluated after 13 days, 100=total damage to plant, 0=no damage to plant
Procedure: as §1

Avena fatua (AVEFA) [4] = assay: Example B pre-emergence herbicidal test, AVEFA; conditions: Avena fatua, 312 h, rate 250 g/ha, evaluated after 13 days, 100=total damage to plant, 0=no damage to plant
Procedure: as §1

Lolium perenne (LOLPE) [5] = assay: Example B post-emergence herbicidal test, LOLPE; conditions: Lolium perenne, 312 h, rate 250 g/ha, evaluated after 13 days, scale 0-100, read-out: Post-emergence activity LOLPE (100=total damage to plant; 0=no damage to plant)
Procedure: as §1, with “Post-Emergence” for “Pre-Emergence”

[6] = test system: Alopecurus myosuroides (ALOMY); assay: Example B post-emergence herbicidal test, ALOMY; conditions: Alopecurus myosuroides, 312 h, rate 250 g/ha, evaluated after 13 days, scale 0-100, read-out: Post-emergence activity ALOMY (100=total damage to plant; 0=no damage to plant)
Procedure: as §1, with “Post-Emergence” for “Pre-Emergence”

[7] = test system: Echinochloa crus-galli (ECHCG); assay: Example B post-emergence herbicidal test, ECHCG; conditions: Echinochloa crus-galli, 312 h, rate 250 g/ha, evaluated after 13 days, scale 0-100, read-out: Post-emergence activity ECHCG (100=total damage to plant; 0=no damage to plant)
Procedure: as §1, with “Post-Emergence” for “Pre-Emergence”

Avena fatua (AVEFA) [8] = assay: Example B post-emergence herbicidal test, AVEFA; conditions: Avena fatua, 312 h, rate 250 g/ha, evaluated after 13 days, scale 0-100, read-out: Post-emergence activity AVEFA (100=total damage to plant; 0=no damage to plant)
Procedure: as §1, with “Post-Emergence” for “Pre-Emergence”

| SMILES | pest or weed control at 250 g/ha (Lolium perenne (LOLPE) [1]) [%] | pest or weed control at 250 g/ha [2] [%] | pest or weed control at 250 g/ha [3] [%] | pest or weed control at 250 g/ha (Avena fatua (AVEFA) [4]) [%] | pest or weed control at 250 g/ha (Lolium perenne (LOLPE) [5]) [%] | pest or weed control at 250 g/ha [6] [%] | pest or weed control at 250 g/ha [7] [%] | pest or weed control at 250 g/ha (Avena fatua (AVEFA) [8]) [%] |
| --- | --- | --- | --- | --- | --- | --- | --- | --- |
| Cc1cc(C)c(C2C(=O)CC(CC3CCN(C(=O)OC(C)(C)C)CC3)C2=O)c(C)c1 (centres unmarked) [Compound T55] | 100 | 80 | 90 | 60 | 60 | 70 | 70 | 50 |
| Cc1cc(C)c(C2C(=O)CC(CC3CCN(C(=O)c4ccco4)C3)C2=O)c(C)c1 (centres unmarked) [Compound T147] | 30 | 50 | 40 | 10 | 40 | 60 | 50 | 70 |
| CC(=O)N1CCC(CC2CC(=O)C(c3c(C)cc(C)cc3C)C2=O)CC1 (centres unmarked) [Compound T24] | 100 | 100 | 100 | 90 | 100 | 90 | 100 | 100 |
| CCC(=O)OC1=C(c2c(C)cc(C)cc2C)C(=O)C(CC2CCN(C(=O)CC)CC2)C1 (centres unmarked) [Compound P65] | 90 | 60 | 80 | 60 | 90 | 90 | 90 | 90 |
| Cc1cc(C)c(C2C(=O)CC(CC3CCN(S(=O)(=O)c4ccccc4)CC3)C2=O)c(C)c1 (centres unmarked) [Compound T91] | 70 | 20 | 60 | 40 | 50 | 40 | 50 | 90 |
| Cc1cc(C)c(C2C(=O)CC(CC3CCN(C(=O)C(F)(F)F)C3)C2=O)c(C)c1 (centres unmarked) [Compound T162] | 70 | 40 | 50 | 50 | 90 | 60 | 70 | 80 |
| Cc1cc(C)c(C2=C(OC(=O)C(C)(C)C)CC(CC3CCN(C(=O)C(C)(C)C)C3)C2=O)c(C)c1 (centres unmarked) [Compound P59] | 80 | 50 | 70 | 30 | 80 | 90 | 70 | 80 |
| CCS(=O)(=O)OC1=C(c2c(C)cc(C)cc2C)C(=O)C(CC2CCOC2)C1 (centres unmarked) [Compound P27] | 100 | 100 | 80 | 80 | 100 | 80 | 90 | 80 |
| Cc1cc(C)c(C2C(=O)CC(CC3CCN(C(=O)C(C)C)CC3)C2=O)c(C)c1 (centres unmarked) [Compound T80] | 100 | 70 | 70 | 70 | 90 | 90 | 80 | 100 |
| COc1ccc(C(=O)OC2=C(c3c(C)cc(C)cc3C)C(=O)C(CC3CCOC3)C2)cc1 (centres unmarked) [Compound P18] | 100 | 100 | 90 | 80 | 100 | 90 | 90 | 90 |
| Cc1cc(-c2ccc(C(F)(F)F)cc2)cc(C)c1C1C(=O)CC(CC2CCOC2)C1=O (centres unmarked) [Compound T157] | 10 | 10 | 40 | 0 | 30 | 30 | 60 | 50 |
| Cc1cc(C)c(C2C(=O)CC(CC3CCN(C(=O)c4cn(C)nc4C(F)F)CC3)C2=O)c(C)c1 (centres unmarked) [Compound T124] | 20 | 20 | 30 | 10 | 20 | 30 | 20 | 30 |
| Cc1cc(C)c(C2C(=O)CC(CC3CCN(C(=O)c4cc(C)nn4C)CC3)C2=O)c(C)c1 (centres unmarked) [Compound T121] | 80 | 30 | 90 | 60 | 90 | 80 | 80 | 100 |
| Cc1cc(C)c(C2C(=O)CC(C)(CC3CCOC3)C2=O)c(C)c1 (centres unmarked) [Compound T30] | 90 | 60 | 80 | 30 | 80 | 80 | 80 | 70 |
| COc1ccc(C(=O)OC2=C(c3c(C)cc(C)cc3C)C(=O)CC2CC2CCOC2)cc1 (centres unmarked) [Compound P71] | 100 | 90 | 100 | 100 | 100 | 100 | 100 | 90 |
| Cc1cc(C)c(C2=C(OC(=O)C(C)(C)CCl)CC(CC3CCN(C(=O)C(C)(C)CCl)C3)C2=O)c(C)c1 (centres unmarked) [Compound P60] | 80 | 30 | 50 | 0 | 70 | 80 | 40 | 80 |
| Cc1cc(C)c(C2C(=O)CC(C(O)C3CCOCC3)C2=O)c(C)c1 (centres unmarked) [Compound T3] | 60 | 50 | 20 | 50 | 70 | 40 | 70 | 70 |
| CON1CCC(CC2CC(OC(C)=O)=C(c3c(C)cc(C)cc3C)C2=O)CC1 (centres unmarked) [Compound P50] | 100 | 100 | 100 | 100 | 100 | 100 | 100 | 100 |
| COc1ccc(CC2C(=O)C(c3c(C)cc(C)cc3C)C(=O)C2CC2CCOC2)cc1 (centres unmarked) [Compound T149] | 20 | 30 | 30 | 10 | 40 | 30 | 20 | 40 |
